# Test results: patent publication US8962600B2, “Neuroprotective compounds and their use” (The Medical College of Wisconsin, Inc., priority 2009, dated 2015)
# How the values were obtained:
# [1] = tested on: subchronic MPTP mouse model; test: Subchronic MPTP mouse model, striatal neurotransmitters by HPLC-EC (Example 2); format: in vivo; conditions: for protection against subchronic MPTP-induced depletion of striatal dopac levels / protection against subchronic MPTP-induced depletion of striatal dopamine levels: MPTP 20 mg/kg i.p. 5 days
# Protocol: The triphenylphosphonium-conjugated apocynin analogue, Mito-apocynin, acts as a potent mitochondrial targeted antioxidant (MTA). The nigrostriative dopaminergic neurons undergo destruction in a slow and progressive manner in idiopathic PD. In order to mimic this condition in a preclinical mouse model, a subchronic MPTP mouse model was developed. The mouse model used here was similar to that used in Example 3 below. Mice were treated with Mito-apocynin (3 mg/kg, oral gavage) for 1 day followed by subchronic MPTP (20 mg/kg, i.p.) administration for 5 days. Animals were sacrificed 7 days after the last dose of MPTP (Mito-apocynin was administered during the 7 days). Striatal neurotransmitters (dopamine, dopac) were analyzed by HPLC-EC. Similar experiments were performed with apocynin (20 mg/kg, oral gavage; lower doses were also tested but not effective).
# G93A mice = conditions: apocynin 300 mg/kg; cited from earlier work
# IL-12 = test: LPS-induced IL-12 release in primary microglia, LUMINEX immunoassay; format: cell-based, mouse; conditions: apocynin 100 μM, LPS 24 hr
# Protocol: (§1) Primary microglia were obtained from 1-2 day old C57/b16 mouse pups. Upon collection, whole brains were kept in ice-cold DMEM-F12 medium containing 10% FBS, 1× sodium pyruvate, 1× NEAAs, 100 units pen/strep, and Q. After collection, the brains were placed in 0.25% trypsin-EDTA and incubated at 37° C., with gentle shaking every 5-10 min. After 30 min, the trypsin was removed, and the brains are washed in warmed medium twice. After washing, medium was added to the brains, and the brains were homogenized using gentle pipetting, starting with a 25 ml pipette and moving to smaller pipette tips as the brains were broken up. When the brains were sufficiently homogenized to a single-cell suspension, they were filtered with a 70 μm nylon filter, which allowed microglia and astrocytes to be collected. The resultant cell suspension was plated in T-75 flasks and allowed to grow for 12-14 days at 37° C., 5% CO2. […]
# (§2) Cytokine levels of BV2 and microglial cells treated with diapocynin were determined by LUMINEX® multiplex immunoassay. […]
# (§3) Cytokine standards and controls were adjusted to 40 μl volume and the LUMINEX® Samples were run on a LUMINEX® 200 Total System and analyzed with Multiplex Analysis—LUMINEX® Software (Invitrogen, Carlsbad, Calif.).
# IL-1β = test: LPS-induced IL-1β release in primary microglia, LUMINEX immunoassay; format: cell-based, mouse; conditions: apocynin 100 μM, LPS 24 hr
# Protocol: as §1, §2, §3
# BV2 microglial cells = test: LPS-induced iNOS activation (nitrite, Griess reagent) in BV2 microglial cells; format: cell-based, mouse; conditions: 30 min pretreatment, Griess reagent
# Protocol: Two cell models of neuroinflammation were used to evaluate the anti-neuroinflammatory property of diapocynin including the mouse BV2 microglial cell line, as well as primary microglia isolated from mouse brains. BV2 cells were obtained from the American Tissue Culture Collection. BV2 cells were maintained in RPMI containing 10% FBS and 100 units of pen/strep at 37° C. and 5% CO2. For treatments, RPMI containing 2% FBS and 100 units of pen/strep was used.
# Inducible nitric oxide synthase (iNOS or NOS2) activation was assessed by measuring nitrite levels using Griess reagent in a 96-well format (70-72). Each well contained 40,000 BV2 cells or 100,000 primary microglia. BV2 cells were cultured in 150 μl of RPMI containing 10% FBS and pen/strep, and the primary microglia were cultured in DMEM-F12 containing 10% FBS, pen/strep, sodium pyruvate (S/P), Q, and NEAAs. One day after culturing, cells were replaced with 150 μl of their respective complete media containing only 2% FBS. Both cell types were pretreated with diapocynin (10 μM) and apocynin (100 μM) for 30 min before LPS stimulation (1 μg/ml LPS for BV2 cells and 100 ng/ml for primary microglia), and the plates were incubated at 37° C. After 24 hr at 37° C., 100 μl of supernatant were removed and placed into a new 96 well plate, to which 100 μl of Griess reagent were added. The plate was shaken on a plate shaker for 10 min before being read in a plate reader at 540 nm.
# This example generally followed the cell culture, treatment, and analysis steps of Example 4 above.
# Diapocynin diacetate (diapodiacetate or diapo diace) suppresses LPS-induced NOS-2 in BV2 microglial cells (FIG. 21). BV-2 cells were plated in 96 well plates, 40,000 cells per well, and treated in 150 μl of RPMI containing 2% heat inactivated FBS and penicillin/streptomycin. Diapo diacetate was used on the cells as a 30 min pretreatment, then LPS (1 μg/ml) was added. All treatments were allowed to incubate at 37° C. for 24 hr, starting from the addition of LPS. One hundred microliter aliquots of supernatant from each well were combined with 100 μl of Griess reagent (Sigma) in a 96-well plate and allowed to shake for 10 minutes before being read on the plate reader. The percent nitrite level for the treatments compared to the control was graphed.
# TNF-α = test: LPS-induced TNF-α release in primary microglia, LUMINEX immunoassay; format: cell-based, mouse; conditions: apocynin 100 μM, LPS 24 hr
# Protocol: as §1, §2, §3
# IL-10 = test: LPS-induced IL-10 release in primary microglia, LUMINEX immunoassay; format: cell-based, mouse; conditions: apocynin 100 μM, LPS 24 hr
# Protocol: as §1, §2, §3
# [2] = Mito-apocynin 3 mg/kg oral gavage, sacrifice 7 days after last MPTP dose
molecule,measurement,setting,value
COc1cc(C(=O)NCC[P+](c2ccccc2)(c2ccccc2)c2ccccc2)ccc1O.[Br-] [Mito-apocynin],protection against subchronic MPTP-induced depletion of striatal dopac levels,[1]; [2],almost completely protected
same,protection against subchronic MPTP-induced depletion of striatal dopamine levels,[1]; [2],almost completely protected
"COc1cc(C(C)=O)ccc1O [apocynin, Apocynin, reference compound]",lifespan of G93A mice,G93A mice,markedly enhanced
same,protection against subchronic MPTP-induced depletion of striatal dopac levels,[1]; apocynin 20 mg/kg oral gavage,not
same,protection against subchronic MPTP-induced depletion of striatal dopamine levels,[1]; apocynin 20 mg/kg oral gavage,not
same,"effect on striatal neurotransmitters (dopamine, dopac)","[1]; apocynin at doses lower than 20 mg/kg, oral gavage",not effective
same,blocking LPS-induced release of IL-12,IL-12,also effective
same,blocking LPS-induced release of IL-1β,IL-1β,also effective
same,EC50,"BV2 microglial cells; Mus musculus, BV-2 cells, LPS 1 μg/ml, non-linear regression of dose response curve, read-out: EC50, block of LPS-induced iNOS activation (nitrite level)",61.3 µM
same,blocking LPS-induced release of TNF-α,TNF-α,also effective
same,blocking LPS-induced release of IL-10,IL-10,also effective
Diapocynin diacetate,LPS-induced NOS-2 (percent nitrite level compared to control),"BV2 microglial cells; BV2 cells, LPS 1 μg/ml 24 hr",suppresses
